What was measured:
[1] = tested on: TEAD response element (TRE) luciferase reporter in MCF-7 cell lines; test: TEAD response element (TRE) reporter assay; format: cell-based; details: Homo sapiens, MCF7; 0.2 μM compound, 24 hours, MCF-7 TEAD reporter cells, relative to vehicle (1% DMSO)
Method: MCF-7 cell lines injected with TEAD reporter genes expressing firefly luciferase upon activation of TEAD response element (TRE) were obtained from BPS bioscience (#60618). The TEAD reporter genes were injected to stable expression in the MCF-7 cell lines.
TEAD reporter genes expressing firefly luciferase upon activation of TEAD response element (TRE) were injected with TEAD reporter genes to ensure stable expression of the TEAD reporter genes. Here, the TEAD reporter genes expresses firefly luciferase upon activation of TEAD response element (TRE). The cells were cultured in a cell-only culture medium (BPS bioscience) to which 10 μg/mL insulin (Sigma) was added at 37° C. and 5% CO2.
In 24 hours after dispensing said cells into a 96-well plate, each of the compounds of the examples or a vehicle solvent (final 1% DMSO) was treated by being diluted with a serum-free culture medium so that the final concentration became 0.2 μM. In 24 hours after said treatment, a luciferase assay working solution (ONE-Step Luciferase assay reagent; BPS bioscience) containing a luciferase substrate was treated in each well at 100 μL, and then left in a shaker for 15 minutes to be well mixed. Then, a degree of luminescence generated by luciferase expressed according to TEAD activation was measured by a microplate reader (TECAN). A relative activity of luciferase […], and the results are shown in table 8 below.

[2] = target: T1, recombinant GST-TEAD1 proteins (209 to 426 a.a.) (Homo sapiens, UniProt P28347); test: Evaluation of palmitoylation of TEAD protein; format: biochemical; details: 5 μM compound, 15 minutes preincubation, 3 μM alkyne palmitoyl-CoA 30 minutes, pH 6.4, vs DMSO control
T1 construct: recombinant GST-TEAD1 proteins (209 to 426 a.a.)
T1 sequence (P28347 209-426): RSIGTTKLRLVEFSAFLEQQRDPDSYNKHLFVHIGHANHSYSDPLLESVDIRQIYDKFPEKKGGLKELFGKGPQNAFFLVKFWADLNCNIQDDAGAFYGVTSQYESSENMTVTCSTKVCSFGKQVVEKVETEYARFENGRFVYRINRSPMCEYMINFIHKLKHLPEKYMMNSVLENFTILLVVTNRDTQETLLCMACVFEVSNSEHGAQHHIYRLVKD
Method: Each compound corresponding to a concentration of 5 μM was added to recombinant GST-TEAD1 proteins (209 to 426 a.a.) and cultured for 15 minutes. For an autopalmitoylation reaction of proteins after culturing, 3 μM alkyne palmitoyl-CoA (Cayman chemical) and 50 mM MES buffer (pH 6.4) were added and cultured for 30 minutes, after which 1% of sodium dodecyl sulfate (SDS) was added to stop the reaction. After that, biotinylation was performed through a CLICK (Click chemistry tools) reaction, and then a protein solution was concentrated to prepare a sample.
Analysis of the sample was performed using SDS-PAGE and streptavidin HRP (Thermo scientific). The resulting values were quantified using an Image J (NIH). For the intensity of the band obtained from Streptavidin blot, a palmitoylation inhibitory activity was analyzed based on the control group (DMSO). The normalization of each sample was performed using an anti-GST (91G1) (cell signaling) antibody.

inhibition at 5 µM [2]	SMILES	inhibition at 0.2 µM [1]
40 to 80%	C=CC(=O)Nc1cnc2c(c1)c(C)nn2-c1cc(F)cc(F)c1 [Compound 76, N-(1-(3,5-difluorophenyl)-3-methyl-1H-pyrazolo[3,4-b]pyridin-5-yl)acrylamide]	30 to 50%
40 to 80%	C=CC(=O)Nc1cnc2c(c1)c(C)nn2Cc1ccc(C(F)(F)F)s1 [Compound 62, N-(3-methyl-1-((5-(trifluoromethyl)thiophen-2-yl)methyl)-1H-pyrazolo[3,4-b]pyridin-5-yl)acrylamide]	30 to 50%
40 to 80%	C=CC(=O)Nc1cnc2c(c1)c(C)nn2-c1ccc(C(F)(F)F)c(OC)c1 [Compound 64, N-(1-(3-methoxy-4-(trifluoromethyl)phenyl)-3-methyl-1H-pyrazolo[3,4-b]pyridin-5-yl)acrylamide]	> 50%
> 80%	C=CC(=O)Nc1cnc2c(c1)c(C)cn2-c1ccc(C(C)C)cc1 [Compound 47, N-(1-(4-isopropylphenyl)-3-methyl-1H-pyrrolo[2,3-b]pyridin-5-yl)acrylamide]	30 to 50%
40 to 80%	C=CC(=O)Nc1cnc2c(c1)c(C)nn2-c1ccc(Cl)c(Cl)c1 [Compound 96, N-(1-(3,4-dichlorophenyl)-3-methyl-1H-pyrazolo[3,4-b]pyridin-5-yl)acrylamide]	> 50%
< 40%	C=CC(=O)Nc1cnc2c(c1)c(C)nn2Cc1cccc(C(F)(F)F)c1 [Compound 56, N-(3-methyl-1-(3-(trifluoromethyl)benzyl)-1H-pyrazolo[3,4-b]pyridin-5-yl)acrylamide]	> 50%
40 to 80%	C=CC(=O)Nc1cnc2c(c1)c(C)nn2-c1ccc(C(F)(F)F)s1 [Compound 89, N-(3-methyl-1-(5-(trifluoromethyl)thiophen-2-yl)-1H-pyrazolo[3,4-b]pyridin-5-yl)acrylamide]	> 50%
< 40%	C=CC(=O)Nc1cnc2c(c1)c(C)nn2-c1cccnc1 [Compound 94, N-(3-methyl-1-(pyridin-3-yl)-1H-pyrazolo[3,4-b]pyridin-5-yl)acrylamide]	< 30%
< 40%	C=CC(=O)Nc1cnc2c(c1)c(C)nn2-c1ccccc1Br [Compound 83, N-(1-(2-bromophenyl)-3-methyl-1H-pyrazolo[3,4-b]pyridin-5-yl)acrylamide]	< 30%
< 40%	C=CC(=O)Nc1cnc2c(c1)c(C)nn2Cc1ccc(C(F)F)cc1 [Compound 67, N-(1-(4-(difluoromethyl)benzyl)-3-methyl-1H-pyrazolo[3,4-b]pyridin-5-yl)acrylamide]	30 to 50%
40 to 80%	C=CC(=O)Nc1cnc2c(c1)c(C)nn2-c1ccc(C(F)(F)F)c(O)c1 [Compound 87, N-(1-(3-hydroxy-4-(trifluoromethyl)phenyl)-3-methyl-1H-pyrazolo[3,4-b]pyridin-5-yl)acrylamide]	< 30%
40 to 80%	C=CC(=O)Nc1cnc2c(c1)c(C)nn2-c1ccccc1C [Compound 75, N-(3-methyl-1-(o-tolyl)-1H-pyrazolo[3,4-b]pyridin-5-yl)acrylamide]	< 30%
< 40%	C=CC(=O)Nc1cnc2c(c1)c(C)nn2-c1cc(OC)cc(OC)c1 [Compound 84, N-(1-(3,5-dimethoxyphenyl)-3-methyl-1H-pyrazolo[3,4-b]pyridin-5-yl)acrylamide]	< 30%
< 40%	C=CC(=O)Nc1cnc2c(c1)c(C)nn2-c1ccc(C(F)(F)F)cn1 [Compound 97, N-(3-methyl-1-(5-(trifluoromethyl)pyridin-2-yl)-1H-pyrazolo[3,4-b]pyridin-5-yl)acrylamide]	> 50%
> 80%	C=CC(=O)Nc1cnc2c(c1)c(C)nn2-c1ccc(C(C)C)cc1 [Compound 51, N-(1-(4-isopropylphenyl)-3-methyl-1H-pyrazolo[3,4-b]pyridin-5-yl)acrylamide]	< 30%

Second part, the molecule before the results:

SMILES	inhibition at 5 µM [2]	inhibition at 0.2 µM [1]
C=CC(=O)Nc1cnc2c(ccn2Cc2ccc(C(F)(F)F)cc2)c1OC [Compound 18, N-(4-methoxy-1-(4-(trifluoromethyl)benzyl)-1H-pyrrolo[2,3-b]pyridin-5-yl)acrylamide]	> 80%	30 to 50%
C=CC(=O)Nc1ncc2c(cnn2Cc2ccc(C(F)(F)F)cc2)n1 [Compound 22, N-(1-(4-(trifluoromethyl)benzyl)-1H-pyrazolo[4,3-d]pyrimidin-5-yl)acrylamide]	< 40%	< 30%
C=CC(=O)Nc1cnc2c(cnn2CC2CCCC2)c1 [Compound 8, N-(1-(cyclopentylmethyl)-1H-pyrazolo[3,4-b]pyridin-5-yl)acrylamide]	40 to 80%	30 to 50%
C=CC(=O)Nc1cnc2c(ccn2-c2ccc(C(F)(F)F)cc2)n1 [Compound 46, N-(5-(4-(trifluoromethyl)phenyl)-5H-pyrrolo[2,3-b]pyrazin-2-yl)acrylamide]	40 to 80%	< 30%
C=CC(=O)Nc1ccc2c(cnn2Cc2ccc(C(F)(F)F)cc2)c1 [Compound 6, N-(1-(4-(trifluoromethyl)benzyl)-1H-indazol-5-yl)acrylamide]	> 80%	30 to 50%
C=CC(=O)N(C)c1cnc2c(c1)c(C)nn2-c1ccc(Cl)cc1 [Compound 91, N-(1-(4-chlorophenyl)-3-methyl-1H-pyrazolo[3,4-b]pyridin-5-yl)-N-methylacrylamide]	> 80%	> 50%
C=CC(=O)Nc1cnc2c(c1)c(C)cn2Cc1ccc(OC(F)(F)F)cc1 [Compound 45, N-(3-methyl-1-(4-(trifluoromethoxy)benzyl)-1H-pyrrolo[2,3-b]pyridin-5-yl)acrylamide]	40 to 80%	> 50%
C=CC(=O)Nc1ccc2cnn(-c3ccc(C(F)(F)F)cc3)c2c1 [Compound 34, N-(1-(4-(trifluoromethyl)phenyl)-1H-indazol-6-yl)acrylamide]	40 to 80%	30 to 50%
C=CC(=O)Nc1cnc2c(n1)c(C)cn2Cc1ccc(C(F)(F)F)cc1 [Compound 28, N-(7-methyl-5-(4-(trifluoromethyl)benzyl)-5H-pyrrolo[2,3-b]pyrazin-2-yl)acrylamide]	> 80%	> 50%
C=CC(=O)Nc1cnc2c(c1)c(C)cn2Cc1ccc(C(C)(C)C)cc1 [Compound 44, N-(1-(4-(tert-butyl)benzyl)-3-methyl-1H-pyrrolo[2,3-b]pyridin-5-yl)acrylamide]	40 to 80%	< 30%
C=CC(=O)Nc1cnc2c(ccn2Cc2ccc(C(F)(F)F)cc2)n1 [Compound 15, N-(5-(4-(trifluoromethyl)benzyl)-5H-pyrrolo[2,3-b]pyrazin-2-yl)acrylamide]	> 80%	> 50%
C=CC(=O)Nc1cnc2c(ccn2-c2ccc(C(F)(F)F)cc2)c1 [Compound 36, N-(1-(4-(trifluoromethyl)phenyl)-1H-pyrrolo[2,3-b]pyridin-5-yl)acrylamide]	> 80%	> 50%
C=CC(=O)Nc1ccc2c(C)nn(Cc3ccc(C(F)(F)F)cc3)c2c1 [Compound 32, N-(3-methyl-1-(4-(trifluoromethyl)benzyl)-1H-indazol-6-yl)acrylamide]	40 to 80%	> 50%
C=CC(=O)Nc1cnc2c(c1)c(C)cn2CCC(C)C [Compound 26, N-(1-isopentyl-3-methyl-1H-pyrrolo[2,3-b]pyridin-5-yl)acrylamide]	> 80%	30 to 50%
C=CC(=O)Nc1cnc2c(c1)c(C)nn2Cc1ccc(C(F)(F)F)c(OC)c1 [Compound 61, N-(1-(3-methoxy-4-(trifluoromethyl)benzyl)-3-methyl-1H-pyrazolo[3,4-b]pyridin-5-yl)acrylamide]	< 40%	> 50%
C=CC(=O)Nc1cnc2c(n1)c(C)nn2Cc1ccc(C(F)(F)F)cc1 [Compound 31, N-(3-methyl-1-(4-(trifluoromethyl)benzyl)-1H-pyrazolo[3,4-b]pyrazin-5-yl)acrylamide]	40 to 80%	> 50%

Source: patent publication US20250171451A1, “NOVEL HETEROCYCLIC COMPOUND AND PHARMACEUTICAL COMPOSITION COMPRISING SAME” (Samjin Pharmaceutical Co., Ltd., priority 2022, published 2025)
